# Reference: US10874683B2, “N4-hydroxycytidine and derivatives and anti-viral uses related thereto” (Emory University, priority 2016, dated 2020)
# Legend:
# ZIKV = ZIKV antiviral assay; format: cell-based; settings: Zika virus, read-out: ZIKV (EC50 μM)
# [1] = Cytotoxicity in Vero cells (ZIKV table); settings: African green monkey
compound,measurement,setting,value
O=c1nc(NO)ccn1[C@@H]1O[C@H](CO)[C@H](O)C1O (some centres unmarked) [drawing 106],EC50,ZIKV,4.02 µM
same,CC50,[1],50.4 µM
